Source: publication PMC7126094 (Bioorganic & Medicinal Chemistry Letters, 2019)
Entries after “also recorded” stand apart in the source; their conditions may differ. Like-named read-outs stand apart in the source and are kept apart here.

Tests used:
[1] = system: HFL-1: human embryonic lung cell line
[2] = human, microsomes
hERG = hERG (Homo sapiens, UniProt Q12809); experiment: hERG binding assay
[3] = system: CHO-K1: Chinese hamster ovary cell line
[4] = system: VERO: African green monkey kidney cell line
[5] = mouse, microsomes
in vitro = conditions: African green monkey
[6] = rat, microsomes
[7] = system: L929: mouse fibroblast cell line
[8] = system: NIH 3T3: mouse embryonic fibroblast cell line

Chain of hERG (Q12809 whole entry): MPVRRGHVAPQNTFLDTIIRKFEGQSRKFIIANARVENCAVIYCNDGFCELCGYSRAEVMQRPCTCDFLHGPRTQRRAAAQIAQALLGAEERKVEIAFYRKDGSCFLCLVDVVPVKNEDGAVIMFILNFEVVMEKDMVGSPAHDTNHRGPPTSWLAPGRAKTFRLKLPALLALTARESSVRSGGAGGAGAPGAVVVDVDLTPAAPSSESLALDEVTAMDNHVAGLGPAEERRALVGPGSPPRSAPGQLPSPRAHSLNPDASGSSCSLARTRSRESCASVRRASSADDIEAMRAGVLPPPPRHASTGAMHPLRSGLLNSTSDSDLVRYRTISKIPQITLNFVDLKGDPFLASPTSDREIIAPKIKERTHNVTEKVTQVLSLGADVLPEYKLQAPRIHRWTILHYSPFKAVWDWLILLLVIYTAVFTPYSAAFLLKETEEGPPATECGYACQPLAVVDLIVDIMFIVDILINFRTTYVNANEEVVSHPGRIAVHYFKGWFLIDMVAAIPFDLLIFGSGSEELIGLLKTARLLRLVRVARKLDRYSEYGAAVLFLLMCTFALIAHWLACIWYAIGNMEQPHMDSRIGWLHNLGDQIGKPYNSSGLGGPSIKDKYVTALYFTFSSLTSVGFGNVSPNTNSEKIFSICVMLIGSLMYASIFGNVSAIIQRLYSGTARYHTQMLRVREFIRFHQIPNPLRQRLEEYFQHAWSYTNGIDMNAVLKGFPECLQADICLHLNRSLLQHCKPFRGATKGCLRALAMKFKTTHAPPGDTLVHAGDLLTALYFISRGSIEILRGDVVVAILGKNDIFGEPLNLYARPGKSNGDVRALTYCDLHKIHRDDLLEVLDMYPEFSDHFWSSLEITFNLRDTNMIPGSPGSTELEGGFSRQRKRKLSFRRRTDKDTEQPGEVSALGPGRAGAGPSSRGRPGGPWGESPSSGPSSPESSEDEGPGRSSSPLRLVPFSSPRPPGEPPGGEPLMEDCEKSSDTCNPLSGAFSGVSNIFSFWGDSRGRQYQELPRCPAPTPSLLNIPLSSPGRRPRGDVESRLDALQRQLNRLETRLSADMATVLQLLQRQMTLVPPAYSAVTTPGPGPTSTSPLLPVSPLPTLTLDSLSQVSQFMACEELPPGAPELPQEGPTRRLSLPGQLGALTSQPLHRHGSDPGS

5,6,8-Tichloro-2-((2,4-difluorophenyl)amino)-3-isobutyrylquinolin-4(1H)-one [Compound 6y]
IC50 (MERS-CoV; read-out: IC50 (MERS-CoV inhibitory activity)): 0.129 ± 0.026 µM

CC(=O)c1c(NC(C)C)[nH]c2c(C(C)C)cccc2c1=O [Compound 6a, 3-Aetyl-8-isopropyl-2-(isopropylamino)quinolin-4(1H)-one]
inhibitory effect on MERS-CoV (in words) (MERS-CoV): no inhibitory effects

CC(=O)c1c(NC(C)C)[nH]c2c(C)cc(C)cc2c1=O [Compound 6b, 3-Aetyl-2-(isopropylamino)-6,8-dimethylquinolin-4(1H)-one]
inhibitory effect on MERS-CoV (in words) (MERS-CoV): no inhibitory effects

CC(C)Nc1[nH]c2c(C(F)(F)F)cc(Cl)cc2c(=O)c1C(=O)c1ccccc1 [Compound 6c, 3-Bnzoyl-6-chloro-2-(isopropylamino)-8-(trifluoromethyl)quinolin-4(1H)-one]
inhibitory effect on MERS-CoV (in words) (MERS-CoV): detrimental for inhibitory effect; also recorded: completely abolished activity

CC(=O)c1c(N2CCCCC2)[nH]c2c(F)cc(F)cc2c1=O [Compound 6i, 3-Acetyl-6,8-difluoro-2-(piperidin-1-yl)quinolin-4(1H)-one]
inhibitory effect on MERS-CoV (in words) (MERS-CoV): no inhibitory effect

CC(=O)c1c(N2CCOCC2)[nH]c2c(F)cc(F)cc2c1=O [Compound 6j, 3-Acetyl-6,8-difluoro-2-morpholinoquinolin-4(1H)-one]
inhibitory effect on MERS-CoV (in words) (MERS-CoV): no inhibitory effect

CCCCNc1[nH]c2c(F)cc(F)cc2c(=O)c1C(C)=O [Compound 6k, 3-Acetyl-2-(butylamino)-6,8-difluoroquinolin-4(1H)-one]
inhibitory effect on MERS-CoV (in words) (MERS-CoV): no inhibitory effect

COc1cccc(Nc2[nH]c3c(F)cc(F)cc3c(=O)c2C(C)=O)c1 [Compound 6p, 3-Acetyl-6,8-difluoro-2-((3-methoxyphenyl)amino)quinolin-4(1H)-one]
inhibitory effect on MERS-CoV (in words) (MERS-CoV): no inhibitory effects

COc1ccc(Nc2[nH]c3c(F)cc(F)cc3c(=O)c2C(C)=O)cc1 [Compound 6q, 3-Acetyl-6,8-difluoro-2-((4-methoxyphenyl)amino)quinolin-4(1H)-one]
inhibitory effect on MERS-CoV (in words) (MERS-CoV): no inhibitory effects

CC(C)C(=O)c1c(Nc2ccc(F)c(F)c2F)[nH]c2c(F)cc(F)cc2c1=O [Compound 6u, 6,8-Difluoro-3-isobutyryl-2-((2,3,4-trifluorophenyl)amino)quinolin-4(1H)-one]
cytotoxicity (in words) [1]: no cytotoxicity | metabolic stability (in words) [2]: good metabolic stability | hERG binding affinity (in words) (hERG): low hERG binding affinity | cytotoxicity (in words) [3]: no cytotoxicity | cytotoxicity (in words) [4]: no cytotoxicity | metabolic stability (in words) [5]: good metabolic stability | IC50 (in vitro): 86.1 µM | metabolic stability (in words) [6]: good metabolic stability | cytotoxicity (in words) [7]: no cytotoxicity | cytotoxicity (in words) [8]: no cytotoxicity
